Experimental data from patent US4347319A, “Microbiological epoxidation process” (priority 1980, dated 1982).
Like-named read-outs stand apart in the source and are kept apart here.

Key:
[1] = test system: Methylomonas rosaceus (CRL M10P) NRRL B-11,212; assay type: cell-based
Description: The pH of the nutrient medium was adjusted to 7.0 by the addition of acid or base and 50 ml samples of the nutrient medium were charged into a plurality of 300 ml shaker flasks. The shaker flasks were inoculated with an inoculating loop of cells from an agar plate containing homogeneous colonies of the microorganisms on the plate (the purity of the isolates was confirmed by microscopic examination. The isolates had been maintained on agar plates under an atmosphere of methane and air having a 1:1 v/v gas ratio which had been transferred evey two weeks. The gaseous phase of the inoculated flasks was then replaced with a gas mixture comprised of methane and air having a ratio of 1:1 on a v/v basis. The inoculated flasks were sealed air tight and were incubated on a rotary shaker of orbital radius 2.5 cm at 250 rpm and at 30° C. for two days until turbidity in the medium had developed.
The cells were harvested by centrifugation at 10,000×g. at 4° C. for 30 minutes. The cell pellet was washed twice with a 0.15 M phosphate buffer at a pH of 7.0 (containing 0.002 M MgCl2). The washed cells were then suspended in a 0.15 M phosphate buffer at pH 7.0.
A 0.5 ml sample of each washed cell suspension (2 mg cells) was put into 10 ml vials at 4° C. which were sealed with a rubber cap. The gaseous phase of the vials was removed with vacuum and then was replaced with a gas mixture of the oxidative substrate (e.g., methane) and oxygen at a 1:1 v/v ratio. The vials were then incubated at 30 ° C. on a rotary shaker at 300 rpm. Samples of product (3 μl) were withdrawn periodically with a microsyringe and the products were analyzed by gas chromatography (ionization flame detector column).
The newly discovered and isolated microorganism strains of the present invention were each grown aerobically in the presence of methane in the manner described above. The methane-grown microbial cells were then washed, recovered and put to use in oxidizing an oxidative substrate by the procedure described above except in the case of a liquid substrate 10 μl of the substrate were used.

[2] = target: T1, cell fractions of Methylosinus sp. (CRL-15, NRRL B-11,202) (Methylosinus trichosporium, UniProt Q50541+Q9KX50+Q9KX51); assay: Oxidation by cell fractions P(40), P(80), S(80); assay type: biochemical; settings: for Rate of Product Formation: P(40) particulate fraction, alkene to epoxide, alkane to alcohol; for Rate of Product Formation / Oxidizing Activity (rate of oxidation) in cell fraction: 30° C.; for Conversion Rate: particulate P(40) fraction, n-propane to 2-propanol, n-butane to 2-butanol; for 100% activity, product formed (storage study) / 100% activity, product formed (pH study) / 100% activity, product formed (temperature study) / Oxidizing Activity (rate of oxidation) in cell fraction: methane to methanol, propylene to propylene oxide; for 100% activity, product formed (pH study): optimum pH 7.0; for 100% activity, product formed (temperature study): optimum temperature 35° C.; for % Distribution in Cell Fraction: propylene-epoxidizing / methane-hydroxylating activity; for Product Formed / O2 Consumed / NADH Oxidized: stoichiometry, 5.0 μ moles substrate; for Product Formed: gas chromatography; for O2 Consumed: polarographically; for NADH Oxidized: spectrophotometrically
T1 sequence (Q9KX50 40-431): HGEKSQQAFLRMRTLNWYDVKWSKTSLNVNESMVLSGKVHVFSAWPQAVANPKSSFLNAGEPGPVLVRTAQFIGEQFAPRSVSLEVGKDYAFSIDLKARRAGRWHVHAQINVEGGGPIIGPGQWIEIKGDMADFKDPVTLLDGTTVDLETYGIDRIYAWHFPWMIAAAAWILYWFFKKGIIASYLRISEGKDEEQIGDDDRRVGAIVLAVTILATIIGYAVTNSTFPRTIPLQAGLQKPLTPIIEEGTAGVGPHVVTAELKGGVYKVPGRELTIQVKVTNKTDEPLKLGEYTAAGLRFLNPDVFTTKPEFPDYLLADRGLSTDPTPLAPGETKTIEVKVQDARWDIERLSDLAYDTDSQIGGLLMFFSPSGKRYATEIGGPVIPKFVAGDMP
T1 sequence (Q50541 1-252): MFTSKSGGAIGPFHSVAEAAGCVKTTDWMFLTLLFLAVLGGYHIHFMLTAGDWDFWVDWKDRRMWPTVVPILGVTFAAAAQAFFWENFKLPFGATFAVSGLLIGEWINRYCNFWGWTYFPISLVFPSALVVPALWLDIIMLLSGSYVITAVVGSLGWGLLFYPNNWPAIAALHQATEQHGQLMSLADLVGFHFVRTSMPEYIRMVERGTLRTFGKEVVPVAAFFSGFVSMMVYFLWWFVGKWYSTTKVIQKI
T1 sequence (Q9KX51 1-256): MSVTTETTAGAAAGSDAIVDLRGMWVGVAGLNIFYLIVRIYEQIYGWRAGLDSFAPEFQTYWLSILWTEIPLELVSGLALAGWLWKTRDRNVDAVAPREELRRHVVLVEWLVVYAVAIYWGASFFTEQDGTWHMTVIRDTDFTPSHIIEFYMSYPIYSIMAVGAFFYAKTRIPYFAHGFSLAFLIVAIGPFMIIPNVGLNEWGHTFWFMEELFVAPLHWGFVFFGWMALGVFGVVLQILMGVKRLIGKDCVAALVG
Description: (§1) Cells were washed twice with 25 mM potassium phosphate buffer, pH 7.0 containing 5 mM MgCl2. Cells were suspended in the same buffer. The cell suspensions at 4° C. were disintegrated by a single passage through a French Pressure cell (15,000 lb./in.^2) and centrifuged at 5000×g. for 15 min. to remove unbroken bacteria. The supernatant solution (crude extract) was then centrifuged at 40,000×g. for 30 min., yielding particulate P(40) and soluble S(40) fractions. The S(40) fraction was subsequently centrifuged at 80,000×g. for 60 min., yielding particulate P(80) and soluble S(80) fractions. The particulate fractions [P(40) and P(80)] were suspended in 25 mM potassium phosphate buffer, pH 7.0, containing 5 mM MgCl2 and homogenized at 4° C.
(§2) The oxidation of methane and propylene by particulate [(P)40 and (P)80] fractions and soluble [S(80)] fraction was measured at 30° C. by estimating the production of methanol and propylene oxide, respectively. The reaction mixtures contained in […]: 150 mM potassium phosphate buffer, pH 7.0 containing 5 mM MgCl2 b, 0.6 ml; 10μ moles NADH, and cellular fraction.
(§3) Reaction mixtures were contained in 10 ml vials at 4° C. Vials were sealed with rubber caps. The gaseous phase in the vials was removed using vacuum and then was replaced with a gas mixture of methane or propylene and oxygen at a 1:1, v/v ratio. Oxidation of other gaseous n-alkanes and n-alkanes was examined as described above. For liquid substrates, 10 μl of substrate was used directly.
(§4) The products of epoxidation of n-alkenes and hydroxylation of n-alkanes were assayed by flame ionization gas chromatography using a stainless steel column (12'×1/8") packed with 10% Carbowax 20 M on 80/100 Chromosorb W and Porapak Q column. The column temperature was maintained isothermally at 120° C. The carrier gas flow rate was 30 ml/min. of helium. The various products were identified by retention time comparisons and co-chromatography with authentic standards.
(§5) Specific activities were expressed as μ moles of products formed per hour per mg. protein. Concentrations of protein in various fractions were determined by the method of Lowry et al., J. Biol. Chem., 193: 265-275 (1951).

[3] = test system: Methylosinus trichosporium OB3b (NRRL B-11,196); assay: Oxidation by cell suspensions of methane-grown cells; assay type: cell-based; settings: methane-grown cell-suspension, pH 7.0
[4] = target: T2, cell fractions of Methylosinus trichosporium (OB3b, NRRL B-11,196) (Methylosinus trichosporium, UniProt Q50541+Q9KX50+Q9KX51); assay type: biochemical; settings: for Conversion Rate: particulate P(40) fraction, n-propane to 2-propanol, n-butane to 2-butanol; for Oxidizing Activity (rate of oxidation) in cell fraction: propylene to propylene oxide, methane to methanol, 30° C.; for % Distribution in Cell Fraction: propylene-epoxidizing / methane-hydroxylating activity
T2 sequence (Q9KX50 40-431): T1 sequence (Q9KX50 40-431)
T2 sequence (Q50541 1-252): T1 sequence (Q50541 1-252)
T2 sequence (Q9KX51 1-256): T1 sequence (Q9KX51 1-256)
Description: as §1, §2, §3, §4, §5

SMILES	Rate of Product Formation [2]	Conversion Rate [2]	Conversion Rate [4]	Oxidative Conversion Rates [1]	100% activity, product formed (storage study) ([2]; P(40))	100% activity, product formed (pH study) ([2]; P(40))	100% activity, product formed (temperature study) ([2]; P(40))	Oxidizing Activity (rate of oxidation) in cell fraction ([2]; P(40))	% Distribution in Cell Fraction ([2]; P(40)) [%]	Oxidizing Activity (rate of oxidation) in cell fraction ([2]; P(80))	% Distribution in Cell Fraction ([2]; P(80)) [%]	Oxidizing Activity (rate of oxidation) in cell fraction ([2]; S(80))	% Distribution in Cell Fraction ([2]; S(80)) [%]	Product Formed ([2]; P(40)) [μ moles]	O2 Consumed ([2]; P(40)) [μ moles]	NADH Oxidized ([2]; P(40)) [μ moles]	Oxidizing Activity (rate of oxidation) in cell fraction ([4]; P(40))	% Distribution in Cell Fraction ([4]; P(40)) [%]	Oxidizing Activity (rate of oxidation) in cell fraction ([4]; P(80))	% Distribution in Cell Fraction ([4]; P(80)) [%]	other results
C=CC=C [Butadiene]	0.63 μ moles/hr/mg of protein	–	–	–	–	–	–	–	–	–	–	–	–	–	–	–	–	–	–	–	Oxidative Conversion Rates ([1]; methane-grown washed cells, 30° C., methane to methanol, alkene to 1,2-epoxide): 9.2 μmole/hr/mg protein
CCCC [Butane]	–	0.89 μmoles/hr/2.0mg. of protein	0.79 μmoles/hr/2.0mg. of protein	–	–	–	–	–	–	–	–	–	–	–	–	–	–	–	–	–	Conversion Rate to 1-Butanol ([3]; 3° C.): 0.3 μmoles/hr./mg./protein; Conversion Rate to 2-Butanol ([3]; 3° C.): 0.4 μmoles/hr./mg./protein; Conversion Rate to 2-Butanone ([3]; 3° C.): 0.1 μmoles/hr./mg./protein; Conversion Rate to n-butanol ([3]; 3° C.): 0.1 μmoles/hr./mg./protein
C [Methane]	4.8 μ moles/hr/mg of protein	–	–	7.3	4.8 μmoles per hr. per mg. of prot	4.8 μmoles per hour per mg protein	5.0 μmoles per hour per mg of prot	4.8 μ moles of products formed per	88	4.2 μ moles of products formed per	12	0 μ moles of products formed per	0	4.2	4.6	4.8	3.1 μ moles of products formed per	83	3.0 μ moles of products formed per	13	Conversion Rate to Methanol ([3]; 3° C.): 1.5 μmoles/hr./mg./protein
CCC [Propane]	–	1.5 μmoles/hr/2.0mg. of protein	1.32 μmoles/hr/2.0mg. of protein	–	–	–	–	–	–	–	–	–	–	–	–	–	–	–	–	–	Conversion Rate to 2-Propanol ([3]; 3° C.): 0.6 μmoles/hr./mg./protein; Conversion Rate to Acetone ([3]; 3° C.): 0.2 μmoles/hr./mg./protein; Conversion Rate to Propanol ([3]; 3° C.): 0.1 μmoles/hr./mg./protein; Conversion Rate to 1-Propanol ([3]; 30° C.): 0.4 μmoles/hr./mg./protein
C=CC [Propylene]	4.1 μ moles/hr/mg of protein	–	–	1.41	4.1 μmoles per hr. per mg. of prot	4.1 μmoles per hour per mg protein	4.2 μmoles per hour per mg of prot	3.8 μ moles of products formed per	87	3.7 μ moles of products formed per	13	0 μ moles of products formed per	0	4.5	4.8	5.0	2.8 μ moles of products formed per	82	2.5 μ moles of products formed per	18	–
